Like-named read-outs stand apart in the source and are kept apart here.
Key:
[1] = biological target: CRBN/DDB1 (Homo sapiens (Human), UniProt Q96SW2); format: binding; conditions: His tagged CRBN+DDB1, Cy5-labeled Thalidomide probe, one hour; read-out: CRBN HTRF IC50
Protocol: The binding potency was determined using HTRF assay technology (Perkin Elmer). Compounds were serially diluted in DMSO and […] volume was transferred to white 384-well plate.

[2] = biological target: ERα_LBD (GST) (Homo sapiens (Human), UniProt P03372); experiment: IC50 measurements for binding to ERα_LBD (GST), LanthaScreen TR-FRET competitive binding; conditions: ERα_LBD (GST) 4 nM, Fluormone ES2 Green tracer, 60 min; read-out: ERα HTRF IC50
Protocol: In vitro Assay: IC50 Measurements for binding to ERα_LBD (GST) • Final assay conditions: • 1. ERα_LBD (GST) protein: 4 nM • 2. Tb Anti-GST: 2 nM • 3. Fluormone ES2 Green tracer: 3 nM • 4. Incubation time: 60 min • 5. DMSO: 1% • 6. Assay buffer: Adding 1M DTT to Nuclear receptor Buffer K for final 5 mM DTT. • 7. ZPE: 1% DMSO • 8. HPE: 1 μM ARV_471 (positive control) • 9. LanthaScreen® TR-FRET ERα Competitive Binding Assay (ThermoFisher, #A^15887) • 100× Compound preparation
1) Cherry pick 2 μL 10 mM compound stock to column 1 of a 384 intermediate plate. • 2) Add 18 μL DMSO to column 1 to dilute compound to 1 mM. • 3) Transfer 10 μL 1 mM compound to column 1 of a LDV plate. • 2) Add 6 μl DMSO to column 2-10 of the LDV plate. • 3) Compounds undergo 3-fold serial dilution (3 μL+6 μL) in DMSO. • 4) Transfer 120 nL compound solution to assay plate. ZPE: 120 nL 100% DMSO • Procedure:
Complete nuclear receptor buffer K was prepared by adding 1 M DTT to nuclear receptor buffer K for a final concentration of 5 mM DTT. Complete nuclear receptor buffer K must be prepared fresh daily, 2X protein solution was prepared using complete nuclear receptor buffer K containing 8 nM ERα_LBD (GST) and 4 nM Tb Anti-GST. Then, 2X Fluormone ES2 Green tracer (6 nM) was prepared using complete nuclear receptor buffer K. Add 6 μL 2X Fluormone ES2 green tracer into a compound plate (PerkinElmer 6008289) by dragonfly with one-tips-addition. Subsequently, 6 μL 2× protein solution was added into the plate. The 384-well plate was mixed on a plate shaker and incubated at room temperature protected from light for 60 min. The plate was scaled with a cover to minimize evaporation. The plate was read at wavelengths of 520 nm and 495 nm. The TR-FRET ratio was calculated by dividing the emission signal at 520 nm by the emission signal at 495 nm. A binding curve was generated by plotting the emission ratio vs, the log [ligand]. To determine the IC50 value, fit the data using XL-fit for a sigmoidal dose-response.

[3] = biological target: ER in MCF-7 cells (Homo sapiens (Human), UniProt P03372); experiment: In-cell Western (ICW) ER degradation assay in MCF-7 cells; format: cell-based; conditions: for DC50: MCF-7, ER degradation, read-out: MCF7 DC50
[4] = biological target: ER in T47D cells (Homo sapiens (Human), UniProt P03372); experiment: In-cell Western (ICW) ER degradation assay in T47D cells; format: cell-based; conditions: for DC50: ER degradation
[5] = test system: MCF-7 cells; experiment: CellTiter-Glo (CTG) cell proliferation assay in MCF-7 cells; format: cell-based; conditions: MCF-7 cell proliferation
Source text: CellTiter-Glo® (CTG) Assays in MCF-7 and T47D Cell Lines.
In vitro Assay: MCF-7 and T47D CTG assay

[6] = MCF7, MCF-7, maximal ER degradation, 16 hrs treatment, read-out: MCF7 Dmax
[7] = maximal ER degradation, 16 hrs treatment, read-out: T47D Dmax
[8] = Homo sapiens, MCF7, 144 h, Day 6
[9] = MCF7, read-out: MCF7 Dmax, MCF-7, maximal ER degradation, 16 hrs treatment
[10] = read-out: T47D Dmax, T47D, maximal ER degradation, 16 hrs treatment

CRBN/DDB1, sequence (Q96SW2 whole entry, species assumed): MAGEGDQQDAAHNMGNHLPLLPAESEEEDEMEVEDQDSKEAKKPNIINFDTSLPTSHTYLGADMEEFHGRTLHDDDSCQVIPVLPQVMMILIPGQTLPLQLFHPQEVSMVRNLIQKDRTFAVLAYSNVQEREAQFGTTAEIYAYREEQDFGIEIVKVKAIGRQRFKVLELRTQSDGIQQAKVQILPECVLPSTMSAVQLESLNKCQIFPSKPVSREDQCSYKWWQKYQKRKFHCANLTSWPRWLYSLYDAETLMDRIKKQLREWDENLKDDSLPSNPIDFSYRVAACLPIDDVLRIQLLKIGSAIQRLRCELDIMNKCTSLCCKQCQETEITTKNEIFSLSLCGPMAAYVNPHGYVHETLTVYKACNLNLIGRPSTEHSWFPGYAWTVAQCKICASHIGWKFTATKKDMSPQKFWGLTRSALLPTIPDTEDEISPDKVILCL
CRBN/DDB1, sequence (Q16531 whole entry partner, species assumed): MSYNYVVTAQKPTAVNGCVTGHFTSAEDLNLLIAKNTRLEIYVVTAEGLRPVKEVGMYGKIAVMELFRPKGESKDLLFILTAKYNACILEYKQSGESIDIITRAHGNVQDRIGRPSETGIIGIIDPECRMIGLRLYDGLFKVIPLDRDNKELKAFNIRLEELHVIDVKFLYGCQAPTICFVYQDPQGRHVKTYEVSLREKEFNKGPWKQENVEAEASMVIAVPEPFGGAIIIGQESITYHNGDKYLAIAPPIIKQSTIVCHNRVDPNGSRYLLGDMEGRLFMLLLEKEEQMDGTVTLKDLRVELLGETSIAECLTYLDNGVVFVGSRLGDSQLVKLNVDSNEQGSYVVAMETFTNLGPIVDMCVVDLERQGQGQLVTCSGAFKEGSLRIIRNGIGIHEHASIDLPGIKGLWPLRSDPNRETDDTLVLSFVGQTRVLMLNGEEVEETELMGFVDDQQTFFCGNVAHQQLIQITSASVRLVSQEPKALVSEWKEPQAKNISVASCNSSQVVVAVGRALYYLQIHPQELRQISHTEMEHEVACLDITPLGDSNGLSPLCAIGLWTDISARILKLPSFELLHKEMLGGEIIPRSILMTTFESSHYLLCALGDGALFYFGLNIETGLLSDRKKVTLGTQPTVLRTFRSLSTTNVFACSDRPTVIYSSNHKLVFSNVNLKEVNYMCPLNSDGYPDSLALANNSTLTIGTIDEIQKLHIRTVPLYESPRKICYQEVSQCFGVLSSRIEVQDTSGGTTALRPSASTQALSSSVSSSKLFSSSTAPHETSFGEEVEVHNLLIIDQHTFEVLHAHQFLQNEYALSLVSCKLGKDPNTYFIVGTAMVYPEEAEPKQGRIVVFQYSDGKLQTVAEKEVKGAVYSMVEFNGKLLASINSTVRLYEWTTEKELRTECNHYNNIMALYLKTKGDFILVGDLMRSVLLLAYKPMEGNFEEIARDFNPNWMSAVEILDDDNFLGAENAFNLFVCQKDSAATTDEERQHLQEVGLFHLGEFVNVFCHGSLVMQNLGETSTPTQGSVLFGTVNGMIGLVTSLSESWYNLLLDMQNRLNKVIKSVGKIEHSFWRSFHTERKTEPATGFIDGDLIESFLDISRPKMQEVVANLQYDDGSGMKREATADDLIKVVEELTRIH
ER in T47D cells, sequence (P03372 whole entry): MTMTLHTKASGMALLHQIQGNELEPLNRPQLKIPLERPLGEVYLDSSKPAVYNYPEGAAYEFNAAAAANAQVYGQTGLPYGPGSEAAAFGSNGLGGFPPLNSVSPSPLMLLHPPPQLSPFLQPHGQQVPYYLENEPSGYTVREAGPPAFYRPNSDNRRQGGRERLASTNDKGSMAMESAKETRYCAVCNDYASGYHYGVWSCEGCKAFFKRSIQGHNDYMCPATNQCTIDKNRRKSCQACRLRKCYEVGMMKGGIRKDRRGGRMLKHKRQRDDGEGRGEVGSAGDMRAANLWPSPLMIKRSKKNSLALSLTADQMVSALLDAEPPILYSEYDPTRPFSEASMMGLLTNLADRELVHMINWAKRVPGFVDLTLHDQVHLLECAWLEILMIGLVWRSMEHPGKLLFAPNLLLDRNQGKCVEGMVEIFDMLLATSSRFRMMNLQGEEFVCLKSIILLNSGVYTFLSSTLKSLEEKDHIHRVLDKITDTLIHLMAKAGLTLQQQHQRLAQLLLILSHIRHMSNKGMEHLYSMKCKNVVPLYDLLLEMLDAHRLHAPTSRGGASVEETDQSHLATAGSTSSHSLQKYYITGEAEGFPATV
ER in MCF-7 cells, sequence (P03372 whole entry): as above
ERα_LBD (GST), sequence (P03372 311-547): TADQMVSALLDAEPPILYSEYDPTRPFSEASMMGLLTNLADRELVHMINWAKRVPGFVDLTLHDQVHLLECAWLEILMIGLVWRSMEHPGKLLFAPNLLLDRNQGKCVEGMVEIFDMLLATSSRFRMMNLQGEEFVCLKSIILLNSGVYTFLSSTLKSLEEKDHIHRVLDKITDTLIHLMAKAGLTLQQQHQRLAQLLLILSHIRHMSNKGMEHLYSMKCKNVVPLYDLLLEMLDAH

Row | Compound | IC50 [1] [nM] | IC50 [2] [nM] | Dmax [3, 6] [%] | DC50 ([3]; 16 hrs treatment) [nM] | DC50 ([4]; 16 hrs treatment) [nM] | Dmax [4, 7] [%] | IC50 [5, 8] [nM] | Dmax [3, 9] [%] | Dmax [4, 10] [%] | MCF7 Dmax ([3]; MCF-7, maximal ER degradation, 16 hrs treatment) | IC50 ([5]; Day 6, read-out: MCF7 IC50) [nM]
1 | O=C1CC[C@H](N2Cc3cc4c(cc3C2=O)OC[C@@H]2CN(C[C@@H]3COC5(C3)CN(c3ccc([C@@H]6c7ccc(O)cc7CC[C@@H]6c6ccccc6)cc3)C5)CCN42)C(=O)N1 [Compound A73, (S)-3-((S)-3-(((R)-2-(4-((1R,2S)-6-hydroxy-2-phenyl-1,2,3,4-tetrahydronaphthalen-1-yl)phenyl)-5-oxa-2-azaspiro[3.4]octan-7-yl)methyl)-8-oxo-1,2,3,4,4a,5,8,10-octahydro-9H-pyrazino[1′,2′:4,5][1,4]oxazino[2,3-f]isoindol-9-yl)piperidine-2,6-dione] | 500 to 5000 | < 10 | > 75 | < 1 | < 1 | > 75 | 10 to 100 |  |  |  | 
2 | COc1cc(N2CCC(CN3CCN4c5ccc6c(c5OC[C@@H]4C3)CN([C@@H]3CCC(=O)NC3=O)C6=O)CC2)ccc1[C@H]1c2ccc(O)cc2CC[C@H]1c1ccccc1 (stereo in doubt) [Compound A24, (R)-3-((S)-7-((1-(4-((1R,2R)-6-hydroxy-2-phenyl-1,2,3,4-tetrahydronaphthalen-1-yl)-3-methoxyphenyl)piperidin-4-yl)methyl)-1-oxo-1,3,5,5a,6,7,8,9-oCtahydro-2H-pyrazino [1′,2′:4,5][1,4]oxazino[2,3-e]isoindol-2-yl)piperidine-2,6-dione] | 50 to 500 | < 10 | > 75 | < 1 | < 1 | > 75 | 10 to 100 |  |  |  | 
3 | O=C1CC[C@H](N2Cc3c(ccc4c3OC[C@H]3CN(CC5CCN(c6ccc([C@@H]7c8ccc(O)cc8CC[C@@H]7c7ccccc7)cc6)CC5)CCN43)C2=O)C(=O)N1 [Compound A71, (S)-3-((R)-7-((1-(4-((1R,2S)-6-hydroxy-2-phenyl-1,2,3,4-tetra-hydronaphthalen-1-yl)phenyl)-piperidin-4-yl)methyl)-1-oxo-1,3,5,5a,6,7,8,9-octahydro-2H-pyrazino[1′,2′:4,5][1,4]oxazino [2,3-e]isoindol-2-yl)piperidine-2,6-dione] | 50 to 500 | < 10 | > 75 | < 1 |  |  | < 10 |  |  |  | 
4 | O=C1CC[C@H](N2Cc3cc4c(cc3C2=O)OCC42CCN(C[C@@H]3COC4(CCN(c5ccc([C@H]6c7ccc(O)cc7CC[C@H]6c6ccccc6)cc5)CC4)C3)CC2)C(=O)N1 [Compound A25, (S)-3-(1′-(((R)-8-(4-((1S,2R)-6-hydroxy-2-phenyl-1,2,3,4-tetrahydronaphthalen-1-yl)phenyl)-1-oxa-8-azaspiro[4.5]decan-3-yl)methyl)-7-oxo-5,7-dihydro-2H,6H-spiro[furo[2,3-f]isoindole-3,4′-piperidin]-6-yl)piperidine-2,6-dione] |  | < 10 |  | < 1 | < 1 |  | < 10 | > 75 | > 75 |  | 
5 | O=C1CC[C@H](N2Cc3cc4c(cc3C2=O)OC[C@@H]2CN(C[C@H]3COC5(C3)CN(c3ccc([C@@H]6c7ccc(O)cc7CC[C@@H]6c6ccccc6)cc3)C5)CCN42)C(=O)N1 [Compound A72, (S)-3-((S)-3-(((S)-2-(4-((1R, 2S)-6-hydroxy-2-phenyl-1,2,3,4-tetrahydronaphthalen-1-yl)phenyl)-5-oxa-2-azaspiro [3.4]octan-7-yl)methyl)-8-oxo-1,2,3,4,4a,5,8,10-octahydro-9H-pyrazino[1′,2′:4,5][1,4]oxazino[2,3-f]isoindol-9-yl)-piperidine-2,6-dione] | 50 to 500 | < 10 | 50 to 75 | < 1 | < 1 | > 75 | < 10 |  |  |  | 
6 | O=C1CC[C@H](N2Cc3c(ccc4c3OC[C@H]3CN(C[C@H]5COC6(C5)CN(c5ccc([C@@H]7c8ccc(O)cc8CC[C@@H]7c7ccccc7)cc5)C6)CCN43)C2=O)C(=O)N1 (single isomer, unassigned) [Compound A68] | < 50 | < 10 | 50 to 75 | < 1 | < 1 | > 75 | 10 to 100 |  |  |  | 
7 | COc1cc(N2CCC(CN3CCN4c5ccc(C(=O)N[C@H]6CCC(=O)NC6=O)nc5OC[C@H]4C3)CC2)c(F)cc1[C@@H]1c2ccc(O)cc2CC[C@@H]1c1ccccc1 [Compound A94, (R)-N-((S)-2,6-dioxopiperidin-3-yl)-3-((1-(2-fluoro-4-((1S,2S)-6-hydroxy-2-phenyl-1,2,3,4-tetrahydronaphthalen-1-yl)-5-methoxyphenyl)piperidin-4-yl)methyl)-1,2,3,4,4a,5-hexahydropyrazino[1,2-d]pyrido[2,3-b][1,4]oxazine-8-carboxamide] | > 5000 | < 10 | > 75 | < 1 | < 1 | > 75 |  |  |  |  | 
8 | O=C1CC[C@H](N2Cc3c(ccc4c3OC[C@H]3CN(C[C@@H]5COC6(C5)CN(c5ccc([C@@H]7c8ccc(O)cc8CC[C@@H]7c7ccccc7)cc5)C6)CCN43)C2=O)C(=O)N1 (single isomer, unassigned) [Compound A69] | 50 to 500 | < 10 | 50 to 75 | < 1 | < 1 | > 75 |  |  |  |  | 
9 | COc1cc(N2CCC3(CC2)CC(CN2CCC4(CC2)COc2c4ccc4c2CN([C@H]2CCC(=O)NC2=O)C4=O)C3)ccc1[C@@H]1c2ccc(O)cc2CC[C@@H]1c1ccccc1 [Compound A95, (S)-3-(1′-((7-(4-((1S,2S)-6-hydroxy-2-phenyl-1,2,3,4-tetra-hydronaphthalen-1-yl)-3-meth-oxyphenyl)-7-azaspiro[3.5]nonan-2-yl)methyl)-6-oxo-6,8-dihydro-2H,7H-spiro[furo[2,3-e]isoindole-3,4′-piperidin]-7-yl)piperidine-2,6-dione] | < 50 | < 10 |  | < 1 | < 1 |  |  | > 75 | > 75 |  | 
10 | (S)-3-(1′-(((S)-2-(4-((1R,2S)-6- hydroxy-2-phenyl-1,2,3,4- tetrahydronaphthalen-1- yl)phenyl)-5-oxa-2- azaspiro[3.4]octan-7-yl)methyl)- 7-oxo-5,7-dihydro-2H,6H- spiro[furo[2,3-f]isoindole-3,4′- piperidin]-6-yl)piperidine-2,6- dione [Compound A76] | 50 to 500 | < 10 |  | < 1 |  |  |  |  |  | A (“A”: >=75%) | < 10
11 | COc1cc(N2CCC3(CC2)CC(CN2CCN4c5cc6c(cc5OC[C@@H]4C2)C(=O)N([C@H]2CCC(=O)NC2=O)C6)C3)ccc1[C@H]1c2ccc(O)cc2CC[C@H]1c1ccccc1 (single isomer, unassigned) [Compound A11] | 50 to 500 | 10 to 100 | 50 to 75 | 10 to 100 | 1 to 10 | 50 to 75 |  |  |  |  | 
12 | O=C1CC[C@H](NC(=O)c2ccc3c(n2)OC[C@H]2CN(CC4CCN(c5ccc([C@@H]6c7ccc(O)cc7CC[C@@H]6c6ccccc6)cc5)CC4)CCN32)C(=O)N1 (single isomer, unassigned) [Compound A6] | 500 to 5000 | < 10 | 50 to 75 | < 1 | < 1 | 50 to 75 |  |  |  |  | 

Reference: US20260028354A1, “TETRAHYDRONAPHTHALENE DERIVATIVES AS ESTROGEN RECEPTOR DEGRADERS” (REGENT OF THE UNIVERSITY OF MICHIGAN, priority 2022, published 2026)
